# pIC50: −log10 of the molar value.
# Experiments:
# [1] = Phase I dose escalation in patients with advanced solid tumors with RET gene abnormalities; type: in vivo, human; settings: patients administered 160 mg BID
# Excerpt: The study consists of two parts: a Phase I part with a Dose-Escalation and a Dose-Expansion cohort, and a Phase II part with 3 cohorts. Patients with advanced solid tumors harboring RET gene abnormalities will receive treatment. In both parts, a treatment cycle is 21 days of continuous dosing with no treatment interruption between cycles. Dosing will continue until disease progression, loss of clinical benefit, the development of unacceptable adverse events, start of new anticancer treatment, withdrawal of consent, physician's discretion, death, or lost-to-follow-up. The Phase I/II studies will also include safety assessment including evaluation of frequency, severity, and relatedness of TEAEs and serious adverse events (SAEs), changes in hematology and blood chemistry values, assessments of physical examinations, vital signs, and electrocardiograms (ECGs).
# The Phase I Dose-Escalation study will follow an accelerated titration design (ATD), with an initial accelerated phase (1 patient per dose level) of 100% dose-step increments beginning with a starting dose of 20 mg BID. The accelerated phase converts to a […] after the 80 mg BID cohort. […]
# [2] = 4-week GLP toxicity study in dog; type: in vivo
# Method: In the 4-week GLP toxicity study in dog, animals received 0, 15, 30, and 45 mg/kg BID HM06-01/TAS0953-01 by oral gavage for 4 consecutive weeks followed by 2-week recovery period. In the high dose of 45 mg/kg BID group, test item-related mortality was observed: 2 males were prematurely sacrificed on Day 17 and Day 18 for ethical reasons (severe clinical signs associated with a significant body weight loss). The main cause of death was the mild to moderate multifocal subacute inflammation with alveolar or bronchioalveolar distribution, accompanied in one male with alveolar foreign body granulomas. In the other male, minimal pancreatic acinar vacuolation/apoptosis with prostatic acinar apoptosis were noted, for which the relationship with test item cannot be excluded.
# [3] = system: CCDC6-RET fusion cell line; assay: Growth inhibition, CCDC6-RET fusion cell line (isogenic pair); settings: read-out: IC50 growth inhibition
# [4] = system: cell line from a patient who acquired resistance to RXDX-105 (KIF5B-RET fusion); assay: Growth inhibition, RXDX-105-resistant cell line; type: cell-based; settings: Homo sapiens, read-out: IC50 growth inhibition
smiles,measurement,setting,value
"COCc1ccc(NC(=O)c2c(C#CCN3CCOCC3)n(C3(C)CC3)c3ncnc(N)c23)cc1 [HM06/TAS0953, 4-amino-N-(4-(methoxymethyl)phenyl)-7-(1-methylcyclopropyl)-6-(3-morpholinoprop-1-yn-1-yl)-7H-pyrrolo[2,3-d]pyrimidine-5-carboxamide]",safety of first cycle of treatment,[1],allowed for the dose escalation to the 320 mg BID dose level
same,"systemic exposure vs dose, AUC(0-t)",[2]; 15-45 mg/kg BID,increased slightly more than dose-proportionally
same,Tmax,"[2]; beagle, dog, in vivo, oral, post first daily dose",1 to 8 h
same,pIC50,[3],7.00
same,pIC50,[4],7.15
